Experimental findings from US4374245A, “8-[3-(6-Fluoro-1,2-benzisoxazol-3-yl)propyl]- 1-phenyl-1,3,8-triazaspiro[4.5]decan-4-one” (Hoechst-Roussel Pharmaceuticals Inc., priority 1982, dated 1983) are described below.

The structures appear in SMILES notation. Like-named read-outs stand apart in the source and are kept apart here.

Assay [1] relates to apomorphine-induced climbing. Put plainly: climbing mice assay (apomorphine-induced climbing, antipsychotic activity). The assay is classed as in vivo, CK-1 male mice. To be noted: Mus musculus, ip, read-out: Antipsychotic Activity ED50.
For assay [2], the system named is phenyl-para-quinone induced writhes. Kind of assay: animal or person. In kind it is in vivo, mice. To be noted: Mus musculus, sc, read-out: Analgesic Activity (ED50).

What is called ED50 is the midpoint of the dose-response relation.

For `O=C(CCCN1CCC(O)(c2ccc(Cl)cc2)CC1)c1ccc(F)cc1` [haloperidol], the ED50 in assay [1] was found to be 0.11 mg/kg.
With `CC(C)=CCN1CCC2(C)c3cc(O)ccc3CC1C2C` (stereo not shown) [pentazocin], the ED50 in assay [2] was 1.3 mg/kg.
Same read-out and setting: the result for `CCC(=O)O[C@](Cc1ccccc1)(c1ccccc1)[C@H](C)CN(C)C` [propoxyphene] reads 3.9 mg/kg.
As for `CCN1CCCC1CNC(=O)c1cc(S(N)(=O)=O)ccc1OC` (stereo not shown) [sulpiride], the ED50 in assay [1] (mice, intraperitoneal, 30 minutes prior to apomorphine 1.5 mg/kg subcutaneously, climbing scored at 10, 20 and 30 minutes, linear regression) was determined as 4.5 mg/kg.
